Measured values reported in ChEMBL document CHEMBL1201862, “PubChem BioAssay data set” (2004).
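These data come from cells grown in 96-well plates and exposed to compound for 48 hours at five concentrations. Abbreviation: GI50, concentration required for 50% inhibition of growth.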 Active and inactive are the calls of the source. Cut-off read from the data, not from the text of the source: active = GI50 up to about 1.1 µM and inactive = higher.

How the values were obtained:
Assay in all cases: NCI-60 cell line screen, 48 h
[1] = system: Malme-3M
[2] = system: MDA-N
[3] = system: MDA-MB-435
[4] = system: CCRF-CEM
[5] = system: NCI-H23
[6] = system: LOX IMVI
[7] = system: DU-145
[8] = system: NCI-H522
[9] = system: TK-10
[10] = system: EKVX
[11] = system: HCT-116
[12] = system: HOP-62
[13] = system: SF-268
[14] = system: CAKI-1
[15] = system: OVCAR-8
[16] = system: UACC-62
[17] = system: IGROV-1
[18] = system: OVCAR-3
[19] = system: HCC 2998
[20] = system: SK-MEL-2

SMILES | GI50 [1] | GI50 [2] | GI50 [3] | GI50 [4] | GI50 [5] | GI50 [6] | GI50 [7] | GI50 [8] | GI50 [9] | GI50 [10] | GI50 [11] | GI50 [12] | GI50 [13] | GI50 [14] | GI50 [15] | GI50 [16] | GI50 [17] | GI50 [18] | GI50 [19] | GI50 [20]
Cc1cc2c(nn1)-c1ccccc1C2=O | > 10 µM (inactive) | > 10 µM (inactive) | > 10 µM (inactive) | > 10 µM (inactive) | > 10 µM (inactive) | > 10 µM (inactive) | > 10 µM (inactive) | > 10 µM (inactive) | > 10 µM (inactive) | > 10 µM (inactive) | > 10 µM (inactive) | > 10 µM (inactive) | > 10 µM (inactive) | > 10 µM (inactive) | > 10 µM (inactive) | > 10 µM (inactive) | > 10 µM (inactive) | > 10 µM (inactive) | > 10 µM (inactive) | > 10 µM (inactive)
C[C@]12CCC(=O)C=C1CC[C@@H]1[C@@H]2CC[C@]2(C)C(=O)/C(=C/c3ccncc3)C[C@@H]12 | 15.7 µM (inactive) | 20.1 µM (inactive) | 17.1 µM (inactive) | 14.7 µM (inactive) | 18.3 µM (inactive) | 15.7 µM (inactive) | 14.5 µM (inactive) | 15.3 µM (inactive) | 18.1 µM (inactive) | 14.6 µM (inactive) | 10.6 µM (inactive) | 14.6 µM (inactive) | 18.8 µM (inactive) | 15.9 µM (inactive) | 23.3 µM (inactive) | 12.7 µM (inactive) | 21.2 µM (inactive) | 13 µM (inactive) | 16.7 µM (inactive) | 14.5 µM (inactive)
CCOP(=O)(OCC)/C(C#N)=C/c1ccc(-c2ccc(F)cc2F)o1 | 18.4 µM (inactive) | 33.7 µM (inactive) | 12.6 µM (inactive) | 14.6 µM (inactive) | 14.5 µM (inactive) | 13.3 µM (inactive) | 27.2 µM (inactive) | 15.3 µM (inactive) | 12.6 µM (inactive) | 16.3 µM (inactive) | 17.4 µM (inactive) | 19.2 µM (inactive) | 17.3 µM (inactive) | 15.3 µM (inactive) | 15.2 µM (inactive) | 11.3 µM (inactive) | 13.9 µM (inactive) | 14.9 µM (inactive) | 14 µM (inactive) | 23.5 µM (inactive)
COC(O)C12OC3CO[Si](C(C)C)(C(C)C)O[Si](C(C)C)(C(C)C)OC3C1Oc1nc(=O)ccn12 (stereo not given) | 13.1 µM (inactive) | 12.8 µM (inactive) | 12.3 µM (inactive) | 4.5 µM (inactive) | 14.3 µM (inactive) | 12.7 µM (inactive) | 16.3 µM (inactive) | 4.88 µM (inactive) | 14.3 µM (inactive) | 13.6 µM (inactive) | 8.61 µM (inactive) | 13.7 µM (inactive) | 9.91 µM (inactive) | 18.2 µM (inactive) | 11.2 µM (inactive) | 11 µM (inactive) | 12.3 µM (inactive) | 11.3 µM (inactive) | 3.94 µM (inactive) | 12 µM (inactive)
CC(C)(CO)NC(=O)Nc1c(C(F)(F)F)cc(-c2ccccc2)[nH]c1=O | > 100 µM (inactive) | > 100 µM (inactive) | > 100 µM (inactive) | > 100 µM (inactive) | > 100 µM (inactive) | > 100 µM (inactive) | > 100 µM (inactive) | > 100 µM (inactive) | > 100 µM (inactive) | > 100 µM (inactive) | > 100 µM (inactive) | > 100 µM (inactive) | > 100 µM (inactive) | > 100 µM (inactive) | > 100 µM (inactive) | > 100 µM (inactive) | > 100 µM (inactive) | 29.4 µM (inactive) | > 100 µM (inactive) | > 100 µM (inactive)
CNNC1=NS(=O)(=O)c2cc(C)c(Cl)cc2S1 | > 10 µM (inactive) | > 10 µM (inactive) | > 10 µM (inactive) | > 10 µM (inactive) | > 10 µM (inactive) | > 10 µM (inactive) | > 10 µM (inactive) | > 10 µM (inactive) | > 10 µM (inactive) | > 10 µM (inactive) | > 10 µM (inactive) | > 10 µM (inactive) | > 10 µM (inactive) | > 10 µM (inactive) | > 10 µM (inactive) | > 10 µM (inactive) | > 10 µM (inactive) | > 10 µM (inactive) | > 10 µM (inactive) | > 10 µM (inactive)
CCCCCCSCC/C(C)=N\OC | > 100 µM (inactive) | > 100 µM (inactive) | > 100 µM (inactive) | > 100 µM (inactive) | > 100 µM (inactive) | > 100 µM (inactive) | > 100 µM (inactive) | > 100 µM (inactive) | > 100 µM (inactive) | > 100 µM (inactive) | > 100 µM (inactive) | > 100 µM (inactive) | > 100 µM (inactive) | > 100 µM (inactive) | > 100 µM (inactive) | > 100 µM (inactive) | > 100 µM (inactive) | > 100 µM (inactive) | > 100 µM (inactive) | > 100 µM (inactive)
CCOC(=O)COC1=Nc2cc(OC)c(OC)c3nc(Cl)cc(c23)C1=O | 1.36 µM (inactive) | 1.18 µM (inactive) | 1.4 µM (inactive) | 0.299 µM (active) | 2.25 µM (inactive) | 1.98 µM (inactive) | 1.82 µM (inactive) | 1.6 µM (inactive) | 1.96 µM (inactive) | 0.716 µM (active) | 1.67 µM (inactive) | 3.07 µM (inactive) | 2.37 µM (inactive) | 1.96 µM (inactive) | 2.43 µM (inactive) | 1.78 µM (inactive) | 2.37 µM (inactive) | 1.75 µM (inactive) | 5.5 µM (inactive) | 2 µM (inactive)
CCOC(=O)c1c(CN2CCNCC2)nc2ccccc2c1-c1ccccc1 | 10.2 µM (inactive) | 10.9 µM (inactive) | 14.3 µM (inactive) | 12.7 µM (inactive) | 18.7 µM (inactive) | 15.8 µM (inactive) | 17.5 µM (inactive) | 14.3 µM (inactive) | 14.3 µM (inactive) | 15.5 µM (inactive) | 11.4 µM (inactive) | 16.9 µM (inactive) | 14 µM (inactive) | 12.2 µM (inactive) | 15.8 µM (inactive) | 15 µM (inactive) | 15.3 µM (inactive) | 17.5 µM (inactive) | 1.9 µM (inactive) | 15.6 µM (inactive)
CC1(C)CC(=O)c2c([nH]c(=S)c(C#N)c2-c2ccc(Br)cc2)C1 | 60.7 µM (inactive) | 70.5 µM (inactive) | 51.5 µM (inactive) | 5.85 µM (inactive) | 51.1 µM (inactive) | 57.5 µM (inactive) | 61 µM (inactive) | 24.2 µM (inactive) | 81.8 µM (inactive) | > 100 µM (inactive) | 58.2 µM (inactive) | 41.7 µM (inactive) | 55.2 µM (inactive) | 20 µM (inactive) | 49.9 µM (inactive) | 32.7 µM (inactive) | 62.5 µM (inactive) | 30.7 µM (inactive) | 35.8 µM (inactive) | 24.9 µM (inactive)
CC1=CC(C)C/C=C/C2C3OC3(C)C(C)C3C(Cc4c[nH]c5ccccc45)NC(=O)C23C(=O)C=CC(=O)C1O (stereo not given) | 1.56 µM (inactive) | 5.53 µM (inactive) | 17.9 µM (inactive) | 0.247 µM (active) | 14.5 µM (inactive) | 2.88 µM (inactive) | 14.1 µM (inactive) | 1.4 µM (inactive) | 1.53 µM (inactive) | 1.19 µM (inactive) | 2.95 µM (inactive) | 6.79 µM (inactive) | 15.1 µM (inactive) | 0.885 µM (active) | 19.5 µM (inactive) | 15.2 µM (inactive) | 11.1 µM (inactive) | 5.26 µM (inactive) | 2.6 µM (inactive) | 15.8 µM (inactive)
